US5858994A, “Carbohydrate conjugates as inhibitors of cell adhesion” (priority 1994, dated 1999)
Each block holds one molecule with its values, some of them ahead of it.

Assays:
[1] = system: selectin receptors; experiment: binding to selectin receptors, statements in words
[2] = hydrolysis in aqueous solution; type: physicochemical; details: elimination of maleic acid, C45 H78 N4 O24 formed
[3] = system: P-selectin-dependent lung injuries; details: animal experiments; cited from earlier work
[4] = system: myocardial reperfusion injuries; details: animal experiments; cited from earlier work
[5] = system: selectin receptors; details: compared with sialyl-Lewis X; cited from earlier work
[6] = target: T1, E-Selectin (Homo sapiens, UniProt P16581); experiment: Inhibition of HL60 cell adhesion to soluble, recombinant E-selectin (E-selectin-IgG1 fusion protein); type: cell-based; details: read-out: IC50 E-Selectin; inhibition of HL60 cell adhesion to soluble, recombinant adhesion molecules
T1 sequence (P16581 22-556): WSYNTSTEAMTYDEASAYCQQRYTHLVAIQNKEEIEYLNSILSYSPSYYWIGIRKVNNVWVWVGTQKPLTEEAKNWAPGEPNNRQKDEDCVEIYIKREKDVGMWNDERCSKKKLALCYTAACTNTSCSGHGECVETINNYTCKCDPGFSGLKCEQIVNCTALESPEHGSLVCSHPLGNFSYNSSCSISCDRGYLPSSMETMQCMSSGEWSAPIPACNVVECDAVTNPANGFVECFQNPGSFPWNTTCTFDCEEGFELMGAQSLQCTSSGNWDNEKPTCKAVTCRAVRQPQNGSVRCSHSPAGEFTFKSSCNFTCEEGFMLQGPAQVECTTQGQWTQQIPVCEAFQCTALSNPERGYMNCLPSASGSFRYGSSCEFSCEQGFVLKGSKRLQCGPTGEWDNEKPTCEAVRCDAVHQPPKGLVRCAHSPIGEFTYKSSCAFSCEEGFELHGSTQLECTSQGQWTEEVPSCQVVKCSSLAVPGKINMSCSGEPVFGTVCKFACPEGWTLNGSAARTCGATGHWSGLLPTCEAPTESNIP
Excerpt: (§1) Carrying out these assays to measure the inhibitory activity of the compounds according to the invention on cell adhesion of promyelocytic cells by means of selecting is described in detail in European Published Application EP 0 601 417.
(§2) In order to test the efficacy of the carbohydrate conjugates on the interaction between the E- and P-selectins (former nomenclature ELAM-1 or GMP-140) with their ligands, an assay is used which in each case is specific only for one of these interactions. The ligands are supplied in their natural form as surface structures on promyelocytic HL60 cells. Since HL60 cells contain ligands and adhesion molecules of very different specificity, the desired specificity of the assay can only be produced by means of the binding component. The binding components used were genetically prepared soluble fusion proteins from the in each case extracytoplasmatic domains of E- or P-selectin and the constant region of a human immunoglobulin of the IgG1 subclass.
Preparation of L-selectin-IgG1
For the preparation of soluble L-selectin-IgG1 fusion protein, the genetic construct "ELAM-Rg" published by Walz et al., 1990 was used.
For expression, the plasmid DNA was transfected in COS-7 cells (ATCC) by means of DEAE-dextran (Molecular Biology Methods: see Ausubel, F. M., Brent, R., Kingston, R. E., Moore, D. D., Seidman, J. G., Struhl, K. and Smith, J. A. 1990. Current Protocols in Molecular Biology, John Wiley, New York). Seven days after transfection, the culture supernatant is recovered, freed from cells and cell fragments by centrifugation and transferred to 25 mM HEPES pH 7.0, 0.3 mM PMSF, 0.02% sodium azide and stored at +4° C.
(§3) 1. 96-well microtiter test plates (Nunc Maxisorb) are incubated at room temperature for 2 hours with 100 μl of a goat anti-human IgG antibody (Sigma) diluted (1+100) in 50 mM Tris pH 9.5. After removing the antibody solution washing is carried out once with PBS.
(§4) 2. 150 μl of the blocking buffer are left in the wells at room temperature for 1 hour. The composition of the blocking buffer is: 0.1% gelatin, 1% BSA, 5% calf serum, 0.2 mM PMSF, 0.02% sodium azide. After removing the blocking buffer washing is carried out once with PBS.
(§5) 3. 100 μl each of cell culture supernatant of appropriately transfected and expressing COS cells are pipetted into the wells. Incubation is carried out at room temperature for 2 hours. After removing the cell culture supernatant washing is carried out once with PBS.
(§6) 4. 20 μl of binding buffer are added to the wells. The binding buffer has the composition: 50 mM HEPES, pH 7.5; 100 mM NaCl; 1 mg/ml BSA; 2 mM MgCl2; 1 mM CaCl2; 3 mM MnCl2; 0.02% sodium azide; 0.2 mM PMSF. 5 μl of the test substance are pipetted into this, mixed by swirling the plate and incubated at room temperature for 10 minutes.
(§7) 5. 50 ml of an HL60 cell culture containing 200,000 cells/ml are centrifuged at 350 g for 4 minutes. The pellet is resuspended in 10 ml of RPMI 1640 and the cells are centrifuged again. For labeling the cells, 50 μg of BCECF-AM (Molecular Probes) are dissolved in 5 μl of anhydrous DMSO; 1.5 ml of RPMI 1640 are then added to the BCECF-AM/DMSO solution. The cells are resuspended using this solution and incubated at 37° C. for 30 minutes. After centrifugation at 350 g for 2 minutes, the labeled cell pellet is resuspended in 11 ml of binding buffer and the resuspended cells are distributed into the microtiter plate wells in 100 μl aliquots. The plate is allowed to stand at room temperature for 10 minutes in order to allow the cells to sediment on the bottom of the test plate. In the course of this, the cells have the opportunity to adhere to the coated plastic.
(§8) 6. To stop the test, the microtiter plate is immersed completely in the stop buffer (25 mM tris, pH 7.5; 125 mM NaCl; 0.1% BSA; 2 mM MgCl2; 1 mM CaCl2; 3 mM MnCl2; 0.02% sodium azide) at an angle of 45°. The stop buffer is removed from the wells by inversion and the procedure is repeated a further two times.

[7] = target: T2, P-Selectin (Homo sapiens, UniProt P16109); experiment: Inhibition of HL60 cell adhesion to soluble, recombinant P-selectin (P-selectin-IgG1 fusion protein); type: cell-based; details: read-out: IC50 P-Selectin; inhibition of HL60 cell adhesion to soluble, recombinant adhesion molecules
T2 sequence (P16109 42-771): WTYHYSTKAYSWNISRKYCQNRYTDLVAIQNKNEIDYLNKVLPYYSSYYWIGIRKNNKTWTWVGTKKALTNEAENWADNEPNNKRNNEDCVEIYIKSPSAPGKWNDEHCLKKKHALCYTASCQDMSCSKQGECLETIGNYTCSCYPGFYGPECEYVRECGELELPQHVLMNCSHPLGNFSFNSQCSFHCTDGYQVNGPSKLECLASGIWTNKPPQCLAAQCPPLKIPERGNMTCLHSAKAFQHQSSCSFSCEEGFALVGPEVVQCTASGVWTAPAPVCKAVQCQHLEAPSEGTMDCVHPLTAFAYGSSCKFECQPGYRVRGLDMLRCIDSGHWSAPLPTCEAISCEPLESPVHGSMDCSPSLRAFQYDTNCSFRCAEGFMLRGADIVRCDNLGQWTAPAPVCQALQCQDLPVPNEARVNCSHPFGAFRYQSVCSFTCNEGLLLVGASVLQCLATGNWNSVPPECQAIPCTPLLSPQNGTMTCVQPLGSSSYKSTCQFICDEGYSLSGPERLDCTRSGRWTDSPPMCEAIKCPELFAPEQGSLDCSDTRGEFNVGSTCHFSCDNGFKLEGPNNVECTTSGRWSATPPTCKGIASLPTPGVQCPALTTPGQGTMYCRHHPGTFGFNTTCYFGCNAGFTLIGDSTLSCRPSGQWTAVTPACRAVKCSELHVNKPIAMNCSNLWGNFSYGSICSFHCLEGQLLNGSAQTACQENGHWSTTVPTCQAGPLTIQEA
Excerpt: as §1, §2
Preparation of P-selectin-IgG1
For preparation of the soluble P-selectin-IgG1 fusion protein, the genetic construct "ICD62Rg" published by Aruffo et al., 1991 is used. The further procedure corresponds to the preparation of L-selectin-IgG1 presented under A1.
as §3, §4, §5, §6, §7, §8
7. Measurement of the BCECF-AM-labeled cells firmly adhering to the wells is carried out in a cytofluorimeter (Millipore) at a sensitivity setting of 4, an excitation wavelength of 485/220 nm and an emission wavelength of 530/250 nm.

binding of the peptide on its own to selectins [1]: does not bind
Molecule: Arg-Gly-Asp-Ala (RGDA; printed: Arg-Gly-Asp-Ala)

Molecule: CC(=O)N[C@H]1[C@H](OCCCCCCNC(=O)C2CCC(CNC(=O)/C=C\C(=O)O)CC2)O[C@H](CO)[C@@H](O[C@@H]2O[C@H](CO)[C@H](O)[C@H](O[C@]3(C(=O)O)C[C@H](O)[C@@H](NC(C)=O)[C@H]([C@H](O)[C@H](O)CO)O3)[C@H]2O)[C@@H]1O[C@@H]1O[C@@H](C)[C@@H](O)[C@@H](O)[C@@H]1O (stereo partly drawn)
hydrolysis in aqueous solution [2]: slowly hydrolyzes further in aqueous solution

Molecule: CC(=O)N[C@@H]1[C@@H](O[C@@H]2O[C@@H](C)[C@@H](O)[C@@H](O)[C@@H]2O)[C@H](O[C@@H]2O[C@H](CO)[C@H](O)[C@H](O[C@]3(C(=O)O)C[C@H](O)[C@@H](NC(C)=O)[C@H]([C@H](O)[C@H](O)CO)O3)[C@H]2O)[C@@H](CO)O[C@H]1O [SLeX]
use in P-selectin-dependent lung injuries [3]: successfully used | use in myocardial reperfusion injuries [4]: successfully used

Molecule: CC(=O)N[C@@H]1[C@@H](O[C@@H]2O[C@H](CO)[C@H](O)[C@H](O[C@]3(C(=O)O)C[C@H](O)[C@@H](NC(C)=O)[C@H]([C@H](O)[C@H](O)CO)O3)[C@H]2O)[C@H](O[C@@H]2O[C@@H](C)[C@@H](O)[C@@H](O)[C@@H]2O)[C@@H](CO)O[C@H]1O [sialyl-Lewis A]
binding to selectin receptors relative to the X type [5]: comparable affinity

Molecule: CC(=O)N[C@H]1[C@H](OCCCCCCNC(=O)CCC(CCC(=O)NCCCCCCO[C@@H]2O[C@H](CO)[C@@H](O[C@@H]3O[C@H](CO)[C@H](O)[C@H](O[C@]4(C(=O)O)C[C@H](O)[C@@H](NC(C)=O)[C@H]([C@H](O)[C@H](O)CO)O4)[C@H]3O)[C@H](O[C@@H]3O[C@@H](C)[C@@H](O)[C@@H](O)[C@@H]3O)[C@H]2NC(C)=O)(CCC(=O)NCCCCCCO[C@@H]2O[C@H](CO)[C@@H](O[C@@H]3O[C@H](CO)[C@H](O)[C@H](O[C@]4(C(=O)O)C[C@H](O)[C@@H](NC(C)=O)[C@H]([C@H](O)[C@H](O)CO)O4)[C@H]3O)[C@H](O[C@@H]3O[C@@H](C)[C@@H](O)[C@@H](O)[C@@H]3O)[C@H]2NC(C)=O)[N+](=O)[O-])O[C@H](CO)[C@@H](O[C@@H]2O[C@H](CO)[C@H](O)[C@H](O[C@]3(C(=O)O)C[C@H](O)[C@@H](NC(C)=O)[C@H]([C@H](O)[C@H](O)CO)O3)[C@H]2O)[C@@H]1O[C@@H]1O[C@@H](C)[C@@H](O)[C@@H](O)[C@@H]1O [II-2]
IC50 [6]: 130 µM | IC50 [7]: 140 µM

Molecule: CC(=O)N[C@@H]1[C@@H](O[C@@H]2O[C@@H](C)[C@@H](O)[C@@H](O)[C@@H]2O)[C@H](O[C@@H]2O[C@H](CO)[C@H](O)[C@H](O[C@]3(C(=O)O)C[C@H](O)[C@@H](NC(C)=O)[C@H]([C@H](O)[C@H](O)CO)O3)[C@H]2O)[C@@H](CO)O[C@H]1NC(=O)CCC(CCC(=O)N[C@@H]1O[C@H](CO)[C@@H](O[C@@H]2O[C@H](CO)[C@H](O)[C@H](O[C@]3(C(=O)O)C[C@H](O)[C@@H](NC(C)=O)[C@H]([C@H](O)[C@H](O)CO)O3)[C@H]2O)[C@H](O[C@@H]2O[C@@H](C)[C@@H](O)[C@@H](O)[C@@H]2O)[C@H]1NC(C)=O)(CCC(=O)N[C@@H]1O[C@H](CO)[C@@H](O[C@@H]2O[C@H](CO)[C@H](O)[C@H](O[C@]3(C(=O)O)C[C@H](O)[C@@H](NC(C)=O)[C@H]([C@H](O)[C@H](O)CO)O3)[C@H]2O)[C@H](O[C@@H]2O[C@@H](C)[C@@H](O)[C@@H](O)[C@@H]2O)[C@H]1NC(C)=O)[N+](=O)[O-] [II-1, tris{2-[N-(5-acetamido-3,5-dideoxy-D-glycero-D-galacto-2-nonulopyranosylate)-(2→3)-(β-D-galactopyranosyl)-(1→4)-[(α-L-fucopyranosyl)-(1→3)]-2-acetamido-1,2-dideoxy-β-D-glucopyranose]amidoethyl}nitro-methane]
IC50 [6]: 380 µM | IC50 [7]: > 800 µM
